The source of these data is patent publication US20220273659A1, “HETEROCYCLIC COMPOUNDS AS KINASE INHIBITORS” (NUVATION BIO INC., priority 2019, published 2022).

Structures are written as SMILES.

Assay [1] addresses T1, PI3Kδ kinase (Homo sapiens, UniProt O00329).
T1 construct: purchased Reaction Biology Corporation (assay service)
In words: PI3Kδ kinase assay (ADP-Glo, Reaction Biology). The format is biochemical. On the procedure:
IC50 values of compounds against the PI3Kδ kinase were determined by an assay performed by Reaction Biology Corporation (Malvern, Pa.). Briefly, this assay was conducted in buffer (Tris-HCl 40 mM (pH7.5), Orthovanadate 3 mM, MgCl2 20 mM, DTT 2 mM, CHAPS 0.05%, DMSO 1%). PI3Kδ kinase was added to the reaction solution and mixed gently. The test compounds in 100% DMSO (at specific solutions) were mixed with the kinase reaction mixture to achieve the final compounds at pre-defined concentrations (e.g., range −0.5 nM to 100 μM) by Acoustic technology (Echo550; nanoliter range). After incubating for 10 min at room temp, ATP was added into the reaction mixture to initiate the reaction followed by a 30-min incubation at 30° C. After quenching the reaction with ADP-Glo reagent, the plates were incubated for 40 min. The Detection Mixture was added, and the plate was incubated for an additional 30 min. At the end of incubation, luminescence was measured. For data analysis, the luminescence was converted into μM ADP production based on ADP standard curves. The nonlinear regression to obtain the standard curve and IC50 values was performed using GraphPad Prism (GraphPad Software, Inc., San Diego, Calif.).

The target in assay [2] is T2, CDK4 (Homo sapiens, UniProt P11802).
T2 construct: purchased Invitrogen PR8064A
In words: In vitro kinase inhibition IC50, luminescence (ADP Glo), retinoblastoma substrate. To be noted: read-out: CDK4/D1 IC50. The assay is classed as biochemical. How it is done:
(§1) IC50 values of compounds against CDK4 and CDK6 were determined by luminescence using retinoblastoma as substrate. Kinase assays were performed in kinase buffer (#PV6135, Invitrogen Life Technologies, Grand Island, N.Y.) where total reaction volume was […] in 96-well half area white plates (#3693, Costar). One microliter of 25×test compounds at specific concentrations (e.g., final concentration range: 0.1 nM-200 nM) was mixed with 10 μL of 2.5×kinase (5 nM, CDK4 #PR8064A and CDK6 #PR8422B, Invitrogen) solution and 14 μL of 4× mixed solution with retinoblastoma (1 μM, #12-439, EMD Millipore, Hayward, Calif.) and ATP (25 μM, #V7038, Promega, Madison, Wis.). The plates were covered and incubated for 2H at room temperature. At the end of incubation, 25 μL of stop solution—ADP Glo reagent (#V7002, Promega) was added. After incubation for 45 min at room temperature, 50 μL of detection reagent (##V7002, Promega) was added. Readings were taken at 15 min and 45 min incubation after detection reagent was added in a Synergy Neo Plate reader (BioTek, Winooski, Vt.) at single excitation of 340 nm and Dual emission at 495 nm and 520 nm respectively. The following equations were used in the CDK4 and CDK6 assay data analysis. Percent inhibition (100-% activity) was fitted to the “four-parameter logistic model” in XLfit for determination of IC50 values.
(§2) Percent conversion of enzyme=100−{(RLUNo Drug−No enzyme*100)/RLUNo drug+Enzyme} Equation 1:
(§3) Percent conversion at each data point=100−{(RLUAverage(Drug+enzyme)*100)!RLUNo drug+Enzyme} Equation 2:
(§4) Percent Inhibition=100*(% Conversioneach data point/% ConversionEnzyme) Equation 3: […]

The target of assay [3] is T3, FMS kinase (Homo sapiens, UniProt P07333).
T3 construct: purchased Invitrogen (Life Technologies)
In words: LanthaScreen Eu Kinase Binding Assay (ATP, fluorescent-PolyGT substrate). The format is biochemical. How it is done:
IC50 values of compounds against FMS kinase were determined by LanthaScreen™ Eu Kinase Binding Assay at Invitrogen (Life Technologies Grand Island, N.Y.) where total reaction volume was 10 μL in low-volume 384-well plates (#4511, Corning). Serially diluted compounds (3-fold) were incubated with kinase (1.25 nM) for 10 min, following which a mixture of ATP (10 μM) (#A1852, Sigma, St-Louis, Mo.) and fluorescent-PolyGT substrate (200 nM) (#PV3610, Invitrogen, Life Technologies Grand Island, N.Y.) was added and incubated in dark at room temperature for 1H. After 1H, 10 μL stop solution containing Terbium labeled antibody (4 nM) (#PV3529, Invitrogen, Life Technologies Grand Island, N.Y.) and EDTA (#E5134, Sigma, St-Louis, Mo.) (20 mM) in TR-FRET dilution buffer (#PV3574, Invitrogen, Life Technologies Grand Island, N.Y.) was added. Readings were taken in a Synergy Neo Plate reader (BioTek, Winooski) at single excitation of 340 nm and Dual emission at 495 nm and 520 nm respectively.
The following equations were used for LanthaScreen Eu Kinase Binding Assay Data Analysis. Percent inhibition (100-% activity) was fitted to the “four-parameter logistic model” in XLfit for determination of IC50 values.

In assay [4] the test system is DU4475 breast carcinoma cells. In words: Cancer cell proliferation assay, single agent (cell viability). The format is cell-based. To be noted: Homo sapiens, DU-4475; Table 4; Rb negative; treatment 144 Hr with medium change at 72 Hr; Cell Titer-Glo or resazurin. On the procedure:
(§5) The effects of test compounds were studied in three breast cancer cell lines of different subtype. The cancer cells (Table 3) were harvested during the logarithmic growth period and counted. Cell concentrations were adjusted to the appropriate number with respective medium and 90 μL cell suspensions were added to 96-well plates. After cells were seeded, the plates were shaken gently to distribute cells evenly and incubated at 37° C., 5% CO2 on day 1.
(§6) Cells were treated with test compounds at 7 to 9 concentrations within a desired concentration range (e.g. 1.1 nM-10 μM) on day 2 by series diluting the test compound stock solution (10 mM in DMSO) with culture medium. Treatment duration was 24 Hr for BT-549 cells and 144 Hr (with a medium change at 72 Hr) for MCF-7 and DU4475 cells. Cell viability was assessed by Cell Titer-Glo® as recommended by Promega (Cat. No.: G7572), or by resazurin assay (Sigma Aldrich, Cat. No.: R7017) post treatment.
(§7) Cell viability data were plotted using GraphPad Prism (GraphPad Software, Inc., San Diego, Calif.). In addition, a nonlinear regression model with a sigmoidal dose response and variable slope within GraphPad Prism was used to calculate the IC50 value of individual test compounds.

The subject of assay [5] is MCF-7 breast adenocarcinoma cells. The description is as above. The format is cell-based. To be noted: Homo sapiens, MCF7, Table 4; Rb positive; treatment 144 Hr with medium change at 72 Hr; Cell Titer-Glo or resazurin. On the procedure: as §5, §6, §7
Assay [6] addresses T4, CDK6 (Homo sapiens, UniProt Q00534).
T4 construct: purchased Invitrogen PR8422B
In words: In vitro kinase inhibition IC50, luminescence (ADP Glo), retinoblastoma substrate. The format is biochemical. To be noted: read-out: CDK6/D1 IC50. How it is done: as §1, §2, §3, §4

T2 sequence (P11802 whole entry): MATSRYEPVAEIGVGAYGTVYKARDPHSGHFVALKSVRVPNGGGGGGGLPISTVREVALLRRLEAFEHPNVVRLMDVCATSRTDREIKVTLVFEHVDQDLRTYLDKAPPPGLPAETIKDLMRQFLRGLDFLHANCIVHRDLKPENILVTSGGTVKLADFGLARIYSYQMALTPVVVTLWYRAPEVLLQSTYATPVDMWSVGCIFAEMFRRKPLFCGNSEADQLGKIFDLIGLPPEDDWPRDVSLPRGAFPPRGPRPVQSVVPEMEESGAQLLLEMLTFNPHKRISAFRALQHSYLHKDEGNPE
T2 sequence (P24385 whole entry partner): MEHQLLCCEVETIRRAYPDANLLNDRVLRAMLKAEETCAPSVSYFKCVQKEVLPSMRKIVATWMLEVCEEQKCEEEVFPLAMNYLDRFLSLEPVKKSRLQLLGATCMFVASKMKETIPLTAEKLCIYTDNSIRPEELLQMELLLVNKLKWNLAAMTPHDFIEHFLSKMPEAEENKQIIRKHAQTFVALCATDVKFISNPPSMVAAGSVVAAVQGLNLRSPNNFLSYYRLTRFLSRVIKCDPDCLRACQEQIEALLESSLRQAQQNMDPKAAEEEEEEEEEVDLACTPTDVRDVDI
T1 sequence (O00329 whole entry): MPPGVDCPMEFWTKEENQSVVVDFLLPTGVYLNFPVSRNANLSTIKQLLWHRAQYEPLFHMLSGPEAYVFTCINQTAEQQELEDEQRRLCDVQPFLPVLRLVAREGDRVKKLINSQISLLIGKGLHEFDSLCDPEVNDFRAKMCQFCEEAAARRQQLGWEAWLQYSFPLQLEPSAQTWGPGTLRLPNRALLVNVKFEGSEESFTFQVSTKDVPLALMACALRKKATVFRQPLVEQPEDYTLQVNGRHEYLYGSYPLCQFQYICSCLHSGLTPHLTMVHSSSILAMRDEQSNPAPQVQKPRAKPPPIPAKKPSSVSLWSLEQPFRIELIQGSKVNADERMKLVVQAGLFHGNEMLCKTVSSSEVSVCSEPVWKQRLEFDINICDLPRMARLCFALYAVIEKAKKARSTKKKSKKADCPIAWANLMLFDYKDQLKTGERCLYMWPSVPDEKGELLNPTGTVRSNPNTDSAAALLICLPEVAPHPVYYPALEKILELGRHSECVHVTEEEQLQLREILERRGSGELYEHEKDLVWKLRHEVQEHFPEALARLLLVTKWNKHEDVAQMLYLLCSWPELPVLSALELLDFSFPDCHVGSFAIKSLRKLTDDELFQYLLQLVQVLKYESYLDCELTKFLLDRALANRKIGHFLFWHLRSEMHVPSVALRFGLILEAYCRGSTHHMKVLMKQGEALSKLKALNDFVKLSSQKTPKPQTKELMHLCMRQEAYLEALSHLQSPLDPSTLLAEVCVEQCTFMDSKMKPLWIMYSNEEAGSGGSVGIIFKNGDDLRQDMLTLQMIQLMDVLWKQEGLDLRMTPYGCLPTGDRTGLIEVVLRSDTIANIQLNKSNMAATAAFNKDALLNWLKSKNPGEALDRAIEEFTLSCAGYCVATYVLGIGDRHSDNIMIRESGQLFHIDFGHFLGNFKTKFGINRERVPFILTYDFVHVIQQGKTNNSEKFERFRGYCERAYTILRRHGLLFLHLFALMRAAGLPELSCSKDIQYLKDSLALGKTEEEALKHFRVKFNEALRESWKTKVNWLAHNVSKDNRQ
T1 sequence (P27986 whole entry partner): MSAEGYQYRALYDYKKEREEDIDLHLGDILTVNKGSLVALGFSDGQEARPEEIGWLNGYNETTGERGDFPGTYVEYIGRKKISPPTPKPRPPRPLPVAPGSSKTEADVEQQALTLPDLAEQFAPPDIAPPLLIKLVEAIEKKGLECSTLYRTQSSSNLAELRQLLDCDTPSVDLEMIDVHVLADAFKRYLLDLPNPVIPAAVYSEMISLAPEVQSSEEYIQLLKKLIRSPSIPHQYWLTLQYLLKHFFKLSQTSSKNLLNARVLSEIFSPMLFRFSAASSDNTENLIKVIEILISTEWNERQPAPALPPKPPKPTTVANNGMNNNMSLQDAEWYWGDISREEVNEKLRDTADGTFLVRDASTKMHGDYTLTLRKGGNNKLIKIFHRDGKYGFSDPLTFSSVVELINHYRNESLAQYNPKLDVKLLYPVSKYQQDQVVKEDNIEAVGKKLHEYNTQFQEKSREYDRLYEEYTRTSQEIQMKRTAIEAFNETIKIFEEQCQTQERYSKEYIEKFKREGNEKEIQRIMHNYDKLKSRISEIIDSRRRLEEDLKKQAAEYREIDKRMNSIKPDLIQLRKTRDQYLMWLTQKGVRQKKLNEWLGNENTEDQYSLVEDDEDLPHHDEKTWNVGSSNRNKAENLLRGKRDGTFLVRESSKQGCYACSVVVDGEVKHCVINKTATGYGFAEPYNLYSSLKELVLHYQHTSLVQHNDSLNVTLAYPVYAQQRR
T3 sequence (P07333 20-972): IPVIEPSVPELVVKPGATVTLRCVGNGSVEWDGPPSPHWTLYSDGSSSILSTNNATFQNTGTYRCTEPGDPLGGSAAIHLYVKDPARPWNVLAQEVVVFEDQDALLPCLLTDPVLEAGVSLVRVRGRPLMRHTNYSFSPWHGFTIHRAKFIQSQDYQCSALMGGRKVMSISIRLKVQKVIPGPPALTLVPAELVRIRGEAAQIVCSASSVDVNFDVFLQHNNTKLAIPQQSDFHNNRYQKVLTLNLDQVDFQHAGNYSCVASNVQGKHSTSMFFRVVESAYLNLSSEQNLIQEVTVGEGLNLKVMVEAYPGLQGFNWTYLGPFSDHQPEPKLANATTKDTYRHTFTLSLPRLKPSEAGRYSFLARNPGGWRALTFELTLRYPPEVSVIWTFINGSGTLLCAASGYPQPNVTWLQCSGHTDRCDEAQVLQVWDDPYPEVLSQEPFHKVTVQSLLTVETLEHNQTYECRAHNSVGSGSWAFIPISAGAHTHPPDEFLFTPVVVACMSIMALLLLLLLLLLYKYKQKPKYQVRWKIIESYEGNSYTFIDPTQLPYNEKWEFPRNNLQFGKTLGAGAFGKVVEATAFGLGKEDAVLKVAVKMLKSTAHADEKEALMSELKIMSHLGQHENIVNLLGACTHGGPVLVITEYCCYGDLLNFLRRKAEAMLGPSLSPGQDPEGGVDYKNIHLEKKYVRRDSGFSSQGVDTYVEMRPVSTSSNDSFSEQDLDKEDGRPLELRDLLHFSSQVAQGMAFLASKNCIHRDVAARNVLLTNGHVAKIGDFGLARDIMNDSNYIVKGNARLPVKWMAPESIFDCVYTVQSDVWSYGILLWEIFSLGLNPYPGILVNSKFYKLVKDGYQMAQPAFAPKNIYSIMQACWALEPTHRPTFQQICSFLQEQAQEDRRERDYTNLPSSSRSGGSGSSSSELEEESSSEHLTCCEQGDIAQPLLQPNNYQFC
T4 sequence (Q00534 whole entry): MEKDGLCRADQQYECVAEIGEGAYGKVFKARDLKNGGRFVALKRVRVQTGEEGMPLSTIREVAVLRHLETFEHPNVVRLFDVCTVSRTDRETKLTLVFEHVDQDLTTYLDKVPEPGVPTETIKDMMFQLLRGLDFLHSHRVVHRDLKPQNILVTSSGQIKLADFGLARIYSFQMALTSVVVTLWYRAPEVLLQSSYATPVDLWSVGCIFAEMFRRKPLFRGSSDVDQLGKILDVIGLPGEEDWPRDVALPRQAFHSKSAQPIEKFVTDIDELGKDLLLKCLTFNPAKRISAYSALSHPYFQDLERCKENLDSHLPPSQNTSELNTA
T4 sequence (P24385 whole entry partner): as the sequence (P24385 whole entry partner) above

On to `CN1CCN(CCCn2cc(Nc3ncc4cc(C#N)c(=O)n(C5CCCC5)c4n3)cn2)CC1` [Compound 56], for which the IC50 in assay [1] was > 30000 nM; in assay [2], > 200 nM; in assay [3], > 5000 nM.

As for `CN1CCC(c2ccc(Nc3ccc4cc(C#N)c(=O)n(C5CCCC5)c4n3)cc2)CC1` [Compound No. 98, 1-cyclopentyl-7-((4-(1-methylpiperidin-4-yl)phenyl)amino)-2-oxo-1,2-dihydro-1,8-naphthyridine-3-carbonitrile], the IC50 was > 50000 nM in assay [1]; 1430 nM in assay [4]; 1720 nM in assay [5]; > 200 nM in assay [6]; > 200 nM in assay [2].

In the case of `CN1CCN(C(=O)Cn2cc(Nc3ncc4cc(C#N)c(=O)n(C5CCCC5)c4n3)cn2)CC1` [Compound 58], the IC50 was > 30000 nM in assay [1], > 200 nM in assay [2] and 4520 nM in assay [3].

On to `N#Cc1cc2cnc(Nc3ccc4c(c3)NC(=O)CC4)nc2n(C2CCCC2)c1=O` [Compound No. 9, 8-cyclopentyl-7-oxo-2-((2-oxo-1,2,3,4-tetrahydroquinolin-7-yl)amino)-7,8-dihydropyrido[2,3-d]pyrimidine-6-carbonitrile], for which the IC50 in assay [1] was 955 nM; in assay [3] it was < 1 nM.

For `C[C@H]1CC[C@H](n2c(=O)c(C#N)cc3cnc(Nc4cccc(S(N)(=O)=O)c4)nc32)CC1` [Compound No. 2, 3-((6-cyano-8-((1r,4r)-4-methylcyclohexyl)-7-oxo-7,8-dihydropyrido[2,3-d]pyrimidin-2-yl)amino)benzenesulfonamide], the figures for the IC50 in assay [1] and in assay [3] were 129 nM and 180 nM, respectively.

As to `CN1CCN(S(=O)(=O)c2ccc(Nc3ncc4cc(C#N)c(=O)n(C5CCCC5)c4n3)cc2)CC1` [Compound No. 15, 8-cyclopentyl-2-((4-((4-methylpiperazin-1-yl)sulfonyl)phenyl)amino)-7-oxo-7,8-dihydropyrido[2,3-d]pyrimidine-6-carbonitrile], the IC50 in assay [1] was found to be 3730 nM; in assay [3] it was 5.5 nM.

Compound `CC1(C)CNCc2cc(Nc3ncc4cc(C#N)c(=O)n(C5CCCC5)c4n3)ccc21` [Compound No. 8, 8-cyclopentyl-2-((4,4-dimethyl-1,2,3,4-tetrahydroisoquinolin-7-yl)amino)-7-oxo-7,8-dihydropyrido[2,3-d]pyrimidine-6-carbonitrile] had an IC50 in assay [1] of 2460 nM.

`N#Cc1cc2cnc(Nc3ccc(S(=O)(=O)N4CCC(O)CC4)cc3)nc2n(C2CCCC2)c1=O` [Compound No. 14, 8-cyclopentyl-2-((4-((4-hydroxypiperidin-1-yl)sulfonyl)phenyl)amino)-7-oxo-7,8-dihydropyrido[2,3-d]pyrimidine-6-carbonitrile]: the IC50 in assay [1] amounted to 976 nM; in assay [3] it was 2.5 nM.

For the compound `CC1CN(c2ccc(Nc3ncc4cc(C#N)c(=O)n(C5CCCC5)c4n3)nc2)CCN1` (stereo not shown) [Compound No. 23, 8-cyclopentyl-2-((5-(3-methylpiperazin-1-yl)pyridin-2-yl)amino)-7-oxo-7,8-dihydropyrido[2,3-d]pyrimidine-6-carbonitrile], the IC50 amounted to 12400 nM in assay [4]; 750 nM in assay [5]; 7 nM in assay [6]; 70.5 nM in assay [2]; 53 nM in assay [3].

On to `CN1CCN(c2ccc(Nc3ccc4cc(C#N)c(=O)n(C5CCCC5)c4n3)cc2)CC1` [Compound No. 96, 1-cyclopentyl-7-((4-(4-methylpiperazin-1-yl)phenyl)amino)-2-oxo-1,2-dihydro-1,8-naphthyridine-3-carbonitrile], for which the IC50 in assay [1] was > 50000 nM; in assay [4], 1700 nM; in assay [5] it was 2440 nM; in assay [6], 154 nM; in assay [2] it was > 200 nM.

With `CN(C)CCNC(=O)c1cccc(Nc2ncc3cc(C#N)c(=O)n(C4CCCC4)c3n2)c1` [Compound No. 11, 3-((6-cyano-8-cyclopentyl-7-oxo-7,8-dihydropyrido[2,3-d]pyrimidin-2-yl)amino)-N-(2-(dimethylamino)ethyl)benzamide], the results for the IC50 in assay [1] and in assay [3] were 1030 nM and 2.4 nM, respectively.

As for `C[C@H]1CC[C@H](n2c(=O)c(C#N)cc3cnc(Nc4cccc(C(N)=O)c4)nc32)CC1` [Compound No. 4, 3-((6-cyano-8-((1r,4r)-4-methylcyclohexyl)-7-oxo-7,8-dihydropyrido[2,3-d]pyrimidin-2-yl)amino)benzamide], the IC50 in assay [1] turned out to be 2730 nM; in assay [3], 1 nM.

`CCC(CC)n1c(=O)c(C#N)cc2cnc(Nc3ccc4c(c3)CCNC4)nc21` [Compound No. 86, 7-oxo-8-(pentan-3-yl)-2-((1,2,3,4-tetrahydroisoquinolin-6-yl)amino)-7,8-dihydropyrido[2,3-d]pyrimidine-6-carbonitrile]: the IC50 in assay [1] stood at 840 nM; in assay [4], 1400 nM; in assay [5], 532 nM; in assay [6] it was 25 nM; in assay [2] it was 177 nM.

Regarding `N#Cc1cc2ccc(Nc3ccc4c(c3)CCNC4)nc2n(C2CCCC2)c1=O` [Compound No. 97, 1-cyclopentyl-2-oxo-7-((1,2,3,4-tetrahydroisoquinolin-6-yl)amino)-1,2-dihydro-1,8-naphthyridine-3-carbonitrile], the IC50 was > 50000 nM in assay [1]; 1270 nM in assay [4]; 1610 nM in assay [5]; > 200 nM in assay [6]; > 200 nM in assay [2].

In the case of `CCC(C)n1c(=O)c(C#N)cc2cnc(Nc3ccc4c(c3)CCNC4)nc21` (stereo not shown) [Compound No. 80, 8-(sec-butyl)-7-oxo-2-((1,2,3,4-tetrahydroisoquinolin-6-yl)amino)-7,8-dihydropyrido[2,3-d]pyrimidine-6-carbonitrile], the IC50 in assay [1] was 295 nM; in assay [4], 870 nM; in assay [5] it was 498 nM; in assay [6] it was 22 nM; in assay [2] it was 128 nM.
